Test results published in patent US20030187023A1, “Sulfone derivatives, process for their production and use thereof” (priority 2000, published 2003).

Biological target: human FXa (Homo sapiens, UniProt P00742)
Test: Human activated coagulation factor X (FXa) inhibiting effect
Assay type: biochemical
Settings: human FXa (0.3 unit/ml), substrate S-2765, 37° C., tris buffer pH 8.3, absorbance at 405 nm
Method: (1) Human Activated Coagulation Factor X (FXa) Inhibiting Effect
Method: A cuvette was charged with 225 μl of 0.05 M tris buffer (pH 8.3) containing 0.145 M sodium chloride and 2 mM calcium chloride, 5 μl of a sample (test compound dissolved in dimethyl sulfoxide) and 10 μl of human FXa (0.3 unit/ml), which were reacted at 37° C. for 10 minutes and then combined with 10 μl of a substrate (3 mM, S-2765) and further reacted at 37° C. for 10 minutes. Then the reaction was terminated by adding 25 μl of 50% aqueous acetic acid, and the change in the absorbance at 405 nm was determined using a spectrophotometer to calculate the concentration at which the FXa effect was inhibited by 50% (IC50).

human FXa, sequence (P00742 235-488 limits assumed): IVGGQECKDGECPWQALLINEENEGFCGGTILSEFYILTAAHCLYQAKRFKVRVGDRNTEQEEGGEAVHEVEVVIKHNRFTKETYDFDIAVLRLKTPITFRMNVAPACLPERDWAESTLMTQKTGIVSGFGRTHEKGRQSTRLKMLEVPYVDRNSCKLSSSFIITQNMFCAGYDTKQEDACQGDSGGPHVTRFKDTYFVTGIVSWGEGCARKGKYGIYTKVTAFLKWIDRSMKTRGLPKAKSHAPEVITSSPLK
human FXa, sequence (P00742 41-179 partner limits assumed): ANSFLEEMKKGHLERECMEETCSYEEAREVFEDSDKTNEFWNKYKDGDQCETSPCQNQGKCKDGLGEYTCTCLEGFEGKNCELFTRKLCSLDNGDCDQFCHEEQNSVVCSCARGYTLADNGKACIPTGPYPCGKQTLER

How did the IC50 turn out when `CC(=O)NCCN(C(=O)CCS(=O)(=O)c1ccc2cc(Cl)ccc2c1)C1CCN(c2ccncc2)CC1` [Example 54, N-(2-Acetylaminoethyl)-3-(6-chloro-2-naphthyl)sulfonyl-N-[1-(4-pyridyl)-4-piperidyl]propanamide] was run?
The IC50 was 0.039 µM.

For “N-(2-Aminoethyl)-3-(6-chloro-2-naphthyl)sulfonyl-N-[1-(2-methyl-4-pyridyl)-4-piperidyl]propanamide ditrifluoroacetate [Example 53]”, which IC50 is on record?
The IC50 was 0.095 µM.

How did the IC50 turn out when `CCOC(=O)CCN(C(=O)CCS(=O)(=O)c1ccc2cc(Cl)ccc2c1)C1CCN(c2ccnc(C)c2)CC1` [Example 67, Ethyl 3-[N-[3-(6-chloro-2-naphthyl)sulfonylpropanoyl]-N-[1-(2-methyl-4-pyridyl)-4-piperidyl]amino]propionate] was run?
The IC50 was 0.025 µM.

How did the IC50 turn out when `CC(=O)N(C)CCN(C(=O)CCS(=O)(=O)c1ccc2cc(Cl)ccc2c1)C1CCN(c2ccnc(C)c2)CC1` [Example 75, N-[2-(N-Acetyl-N-methylamino)ethyl]-3-(6-chloro-2-naphthyl)sulfonyl-N-[1-(2-methyl-4-pyridyl)-4-piperidyl]propanamide] was run?
Its IC50 is 0.059 µM.

Which IC50 does the source give for “4-(6-Chloro-2-naphthyl)sulfonyl-N-methyl-N-[1-(2-methyl-4-pyridyl)-4-piperidinyl]propanamide [Example 42]” here?
Its IC50 is 0.061 µM.

For `CCOC(=O)CN(C(=O)CCS(=O)(=O)c1ccc2cc(Cl)ccc2c1)C1CCN(c2ccncc2)CC1` [Example 33, Ethyl 2-[N-[3-(6-chloro-2-naphthyl)sulfonylpropioyl]-N-[1-(4-pyridyl)-4-piperidyl]amino]acetate], which IC50 is on record?
The IC50 was 0.055 µM.

With `Cc1cc(N2CCC(N(CCC(=O)N3CC[S+]([O-])CC3)C(=O)CCS(=O)(=O)c3ccc4cc(Cl)ccc4c3)CC2)ccn1` [Example 68, 3-(6-Chloro-2-naphthyl)sulfonyl-N-[1-(2-methyl-4-pydiryl)-4-piperidyl]-N-[3-oxy-3-(1-oxothiomorpholin-4-yl)propyl]propionamide] as the molecule, how does the IC50 read?
The IC50 was 0.034 µM.

Which IC50 does the source give for `CN(CCCS(=O)(=O)c1ccc2cc(Cl)ccc2c1)C(=O)C1CCN(c2ccncc2)CC1` [Example 5, N-[3-(6-Chloro-2-naphthyl)sulfonylpropyl]-N-methyl-1-(4-pyridyl)-4-piperidinecarboxamide] here?
The IC50 was 0.095 µM.

How did the IC50 turn out when `COC(=O)CN(CCCS(=O)(=O)c1ccc2cc(Cl)ccc2c1)C(=O)C1CCN(c2ccncc2)CC1` [Example 14, Methyl 2-[N-[3-(6-chloro-2-naphthyl)sulfonylpropyl]-N-[[1-(4-pyridyl)-4-piperidinyl]carbonyl]amino]acetate] was run?
Its IC50 is 0.06 µM.

With `Cc1cc(N2CCC(N(C)C(=O)CCS(=O)(=O)c3ccc4cc(Cl)ccc4c3)CC2)cc(C)n1` [Example 118, 3-(6-Chloro-2-naphthyl)sulfonyl-N-[1-(2,6-dimethyl-4-pyridyl)-4-piperidyl]-N-propanamide] as the molecule, how does the IC50 read?
The IC50 was 0.063 µM.

Which IC50 does the source give for `CC(=O)NCCN(C(=O)CCS(=O)(=O)c1ccc2cc(Cl)ccc2c1)C1CCN(c2ccnc(C)c2)CC1` [Example 52, N-(2-Acetylaminoethyl)-3-(6-chloro-2-naphthyl)sulfonyl-N-[1-(2-methyl-4-pyridyl)-4-piperidyl]propanamide] here?
Its IC50 is 0.049 µM.

“4-(6-Chloro-2-naphthyl)sulfonyl-N-methyl-N-[1-(4-pyridyl)-4-piperidyl]propanamide [Example 31]” was tested. Which IC50 did it give?
Its IC50 is 0.05 µM.

For `CCOC(=O)CCN(C(=O)CCS(=O)(=O)c1ccc2cc(Cl)ccc2c1)C1CCN(c2ccncc2)CC1` [Example 34, Ethyl 3-[N-[3-(6-chloro-2-naphthyl)sulfonylpropioyl]-N-[1-(4-pyridyl)-4-piperidyl]amino]propionate], which IC50 is on record?
Its IC50 is 0.037 µM.

`Cc1cc(N2CCC(N(Cc3ccccn3)C(=O)CCS(=O)(=O)c3ccc4cc(Cl)ccc4c3)CC2)ccn1` [Example 129, 3-(6-Chloro-2-naphthyl)sulfonyl-N-[1-(2-methyl-4-pyridyl)-4-piperidyl]-N-(2-pyridyl)methylpropanamide] was tested. Which IC50 did it give?
Its IC50 is 0.066 µM.

`CS(=O)(=O)NCCN(C(=O)CCS(=O)(=O)c1ccc2cc(Cl)ccc2c1)C1CCN(c2ccncc2)CC1` [Example 55, 3-(6-Chloro-2-naphthyl)sulfonyl-N-(2-methylsulfonylaminoethyl)-N-[1-(4-pyridyl)-4-piperidyl]propanamide] was tested. Which IC50 did it give?
Its IC50 is 0.04 µM.

With “4-(6-Bromo-2-naphthyl)sulfonyl-N-methyl-N-[1-(2-methyl-4-pyridyl)-4-piperidyl]propanamide [Example 64]” as the molecule, how does the IC50 read?
The IC50 was 0.036 µM.
